From patent publication US20250122192A1, “5-PYRIMIDINECARBOXAMIDE DERIVATIVES AND METHODS OF USING THE SAME” (Rgenta Therapeutics, Inc., priority 2021, published 2025) come the findings set out here.

Structures can show the parent of a compound that is named as a salt.

One test deals with PMS1. Description: Mini-gene reporter assay-PMS1. The class given is cell-based. The settings on record: Homo sapiens, HEK293, PMS1 mini-gene firefly luciferase reporter transiently transfected into HEK293 cells; read-out: PMS1 IC50. In outline:
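Compound dilution series in duplicate added to transiently transfected HEK293 reporter cells, then incubated; EC50 from Levenberg-Marquardt fit of luminescence. The reporter joins the alternatively skipped exon, its neighbouring introns and exons to firefly luciferase, so induced inclusion gives more signal.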
(Reporter assays use an easily measured gene product as a stand-in for the process of interest.)
In general, IC50 refers to the midpoint of a concentration-inhibition curve. `CCOc1nc(N2CCNC3(CC3)C2)ncc1C(=O)Nc1cc(F)c2nc(C)cn2c1` [Compound 296, 4-ethoxy-N-(8-fluoro-2-methylimidazo[1,2-a]pyridin-6-yl)-2-(4,7-diazaspiro[2.5]octan-7-yl)pyrimidine-5-carboxamide 2,2,2-trifluoroacetate]: the IC50 is > 3000 nM. As to `CCOc1nc(N2CCC(C3CCNC3)C2)ncc1C(=O)Nc1cc(F)c2nc(C)cn2c1` (centres unmarked) [Compound 127], the IC50 lay in the range of 500 to 1000 nM. As to `CCOc1nc(N2CC[C@H](CNC)C2)ncc1C(=O)Nc1cc(F)c2nc(C)cn2c1` [Compound 297, (R)-4-ethoxy-N-(8-fluoro-2-methylimidazo[1,2-a]pyridin-6-yl)-2-(3-((methylamino)methyl)pyrrolidin-1-yl)pyrimidine-5-carboxamide 4-methylbenzenesulfonate], the half-inhibitory concentration (IC50) was < 500 nM. As to `CCN(c1ncc(C(=O)Nc2cn3cc(C)nc3c(C)n2)c(COC)n1)C1CCNCC1` [Compound 36], the IC50 was < 500 nM.

Regarding `CCOc1nc(N2CCC3(CC2)CNC3C(C)C)ncc1C(=O)Nc1cc(F)c2nc(C)cn2c1` (centres unmarked) [Compound 182], the IC50 was in the range of 500 to 1000 nM.

Turning to `CCCOc1nc(N2CCNCC2)ncc1C(=O)Nc1cc(F)c2nn(C)cc2c1` [Compound 301, N-(7-fluoro-2-methyl-2H-indazol-5-yl)-2-(piperazin-1-yl)-4-propoxypyrimidine-5-carboxamide], the 50% inhibitory concentration (IC50) fell in the range of 1000 to 3000 nM.

For `CCOc1nc(N2CC[C@H](NC)C2)ncc1C(=O)Nc1cc(OC)c2nn(C)cc2c1` [Compound 298, (S)-4-ethoxy-N-(7-methoxy-2-methyl-2H-indazol-5-yl)-2-(3-(methylamino)pyrrolidin-1-yl)pyrimidine-5-carboxamide 4-methylbenzenesulfonate], the IC50 is 1000 to 3000 nM.

Consider `CCOc1nc(N2CCC3(CCCNC3)C2)ncc1C(=O)Nc1cc(F)c2nc(C)cn2c1` (centres unmarked) [Compound 208], for which the IC50 was < 500 nM. For `CCOc1nc(N2CCC3(CC2)CNC3)ncc1C(=O)Nc1cn2cc(C)nc2c(C)n1` [Compound 86], the 50% inhibitory concentration (IC50) was < 500 nM. Consider `CCOc1nc(N2CC[C@H](NC)C2)ncc1C(=O)Nc1ccc2nn(C)cc2c1` [Compound 285, (S)-4-ethoxy-N-(2-methyl-2H-indazol-5-yl)-2-(3-(methylamino)pyrrolidin-1-yl)pyrimidine-5-carboxamide 2,2,2-trifluoroacetate], for which the IC50 lay in the range of 1000 to 3000 nM. Same read-out and setting: the result for `CCOc1nc(N2CCNC(C(F)F)C2)ncc1C(=O)Nc1cc(F)c2nc(C)cn2c1` (centres unmarked) [Compound 115] reads > 3000 nM; that for `CCOc1nc(N2CCC(NCC3CC3)CC2)ncc1C(=O)Nc1cc(F)c2nc(C)cn2c1` [Compound 164], < 500 nM; that for `CCOc1nc(N2C[C@@H](C)N[C@@H](C)C2)ncc1C(=O)Nc1cc(F)c2nc(C)cn2c1` [Compound 231], < 500 nM.

With `CCOc1nc(N2CC34CCCC3(CNC4)C2)ncc1C(=O)Nc1cc(F)c2nc(C)cn2c1` (centres unmarked) [Compound 151], the IC50 lay within 1000 to 3000 nM.

As for `CCOc1nc(N2CCNCC2C2CC2)ncc1C(=O)Nc1cc(F)c2nc(C)cn2c1` (centres unmarked) [Compound 113], the half-inhibitory concentration (IC50) lay in the range of 1000 to 3000 nM. On the same count and under the same terms, the result for `CCOc1nc(N2CC[C@@H](NC)C2)ncc1C(=O)Nc1cc(F)c2nn(C)cc2c1` [Compound 282, (R)-4-ethoxy-N-(7-fluoro-2-methyl-2H-indazol-5-yl)-2-(3-(methylamino)pyrrolidin-1-yl)pyrimidine-5-carboxamide formate] reads < 500 nM; that for `CCOc1nc(N2CCC(NC)C2)ncc1C(=O)Nc1cnc2nn(C)cc2c1` (centres unmarked) [Compound 276, 4-ethoxy-N-(2-methyl-2H-pyrazolo[3,4-b]pyridin-5-yl)-2-(3-(methylamino)pyrrolidin-1-yl)pyrimidine-5-carboxamide formate], > 3000 nM. The same measure, in the same setting: next, `CCNC1CN(c2ncc(C(=O)Nc3cn4cc(C)nc4c(C)n3)c(OCC)n2)C1` [Compound 100]: > 3000 nM; `CCOc1nc(N2CCCC(C3CCCCN3)C2)ncc1C(=O)Nc1cc(F)c2nc(C)cn2c1` (centres unmarked) [Compound 147]: < 500 nM. On the same count and under the same terms, the result for `CCOc1nc(N2CC[C@H](N(C)C)C2)ncc1C(=O)Nc1cc(F)c2nn(C)cc2c1` [Compound 291, (S)-2-(3-(dimethylamino)pyrrolidin-1-yl)-4-ethoxy-N-(7-fluoro-2-methyl-2H-indazol-5-yl)pyrimidine-5-carboxamide formate] reads > 3000 nM; that for `CCOc1nc(N2CC3(CCNCC3)CC2C)ncc1C(=O)Nc1cn2cc(C)nc2c(C)n1` (centres unmarked) [Compound 68], > 3000 nM. `CCOc1nc(N(CC)C2CCNCC2)ncc1C(=O)Nc1cc(F)c2nn(C)cc2c1` [Compound 258, 4-ethoxy-2-(ethyl(piperidin-4-yl)amino)-N-(7-fluoro-2-methyl-2H-indazol-5-yl)pyrimidine-5-carboxamide formate]: the IC50 is < 500 nM. The same measure, in the same setting: the result for `CCOc1nc(N2C[C@@H]3CCCN[C@@H]3C2)ncc1C(=O)Nc1cc(F)c2nc(C)cn2c1` [Compound 197] reads < 500 nM; that for `CCOc1nc(N2CCN3CCCC3C2)ncc1C(=O)Nc1cc(F)c2nc(C)cn2c1` (centres unmarked) [Compound 5, 4-ethoxy-N-{8-fluoro-2-methylimidazo[1,2-a]pyridin-6-yl}-2-{octahydropyrrolo[1,2-a]pyrazin-2-yl}pyrimidine-5-carboxamide], 1000 to 3000 nM; that for `CCOc1nc(N2CC3(CCNC3)C2)ncc1C(=O)Nc1cc(F)c2nc(C)cn2c1` [Compound 212], < 500 nM. For `CCOc1nc(N2CC3(CNCCO3)C2)ncc1C(=O)Nc1cn2cc(C)nc2c(C)n1` [Compound 104], the half-inhibitory concentration (IC50) is > 3000 nM.

Turning to `CCOc1nc(N2CCOC3(CNC3)C2)ncc1C(=O)Nc1cc(F)c2nc(C)cn2c1` [Compound 144], the IC50 is > 3000 nM.

As to `CCOc1nc(N(C)C2CCCNCC2)ncc1C(=O)Nc1cn2cc(C)nc2c(C)n1` (centres unmarked) [Compound 46], the 50% inhibitory concentration (IC50) is < 500 nM. Consider `CCOc1nc(N2CC(NC)C2)ncc1C(=O)Nc1ccc2nn(C)cc2c1` [Compound 255, 4-ethoxy-N-(2-methyl-2H-indazol-5-yl)-2-(3-(methylamino)azetidin-1-yl)pyrimidine-5-carboxamide], for which the IC50 is > 3000 nM. Consider `CCOc1nc(N2CCN[C@H](C)C2)ncc1C(=O)Nc1cc(F)c2nc(C)oc2c1` [Compound 13], for which the concentration for half-maximal inhibition (IC50) fell in the range of 500 to 1000 nM. With `CCOc1nc(N2CCC(NCCOC)CC2)ncc1C(=O)Nc1cc(F)c2nc(C)cn2c1` [Compound 155], the 50% inhibitory concentration (IC50) was < 500 nM.

Take `CCOc1nc(N2CCN(C3CCNCC3)CC2)ncc1C(=O)Nc1cc(F)c2nc(C)cn2c1` [Compound 137]: the half-maximal inhibitory concentration (IC50) was > 3000 nM.

Staying with this test, now noted: Homo sapiens, HEK293, read-out: PMS1 IC50 (nM).
For `CCOc1nc(N(CC)C2CCNCC2)ncc1C(=O)Nc1ccn2nc(C)cc2c1` [Compound 288, 4-ethoxy-2-(ethyl(piperidin-4-yl)amino)-N-(2-methylpyrazolo[1,5-a]pyridin-5-yl)pyrimidine-5-carboxamide formate], the IC50 is 500 to 1000 nM.

The same test, now with this note: Homo sapiens; at 5 μM; PMS1 mini-gene firefly luciferase reporter in HEK293 cells; read-out: PMS1% Effect at 5 μM.
For `COc1nc(N(C)C2CCNCC2)ncc1C(=O)Nc1cc(F)c2nn(C)cc2c1` [Compound 281, N-(7-fluoro-2-methyl-2H-indazol-5-yl)-4-methoxy-2-(methyl(piperidin-4-yl)amino) pyrimidine-5-carboxamide formate], the activation at 5 µM was > 75%. Regarding `CCOc1nc(N2CC[C@@H](NC)C2)ncc1C(=O)Nc1ccn2nc(C)cc2c1` [Compound 313, 4-ethoxy-2-[(3R)-3-(methylamino)pyrrolidin-1-yl]-N-2-methylpyrazolo[1,5-a]-pyridin-5-ylpyrimidine-5-carboxamide], the activation at 5 µM was > 75%.
